The text below walks through data of patent US20250034200A1, “Prodrugs of Neurosteroid Analogs and Uses Thereof” (priority 2021, published 2025).

Data set [1] can be described thus: Aqueous stability assay (HPLC, pseudo first-order half-life). It counts as physicochemical. Conditions: DPBS pH 7.0-7.3, 1 mg/mL, room temperature; for half-life at 1 mg/mL / half-life: buffer, read-out: PBS t1/2 (converted). As for the experimental part:
Aqueous stability experiments were performed on an Agilent 1100 HPLC equipped with an Agilent 1200 autosampler. HPLC grade solvents were exclusively used during analysis, with acetonitrile being purchased from Sigma Aldrich, and water and formic acid provided by Fisher Scientific. […]
[…] All mixtures were then sonicated for 5 min or stirred until complete dissolution was achieved. Any precipitate observed in sample solutions was filtered with a PTFE syringe filter prior to analysis. Immediately after sample preparation, injection by the HPLC autosampler was performed, which was recorded as the initial time point (t=0 min). Samples were then kept in the autosampler at room temperature and injected at designated intervals without additional filtration or sample modification. Next, the area of the parent peak in each chromatogram was determined by automated integration in the Agilent ChemStation software. Pseudo first-order half-lives were then ascertained by calculating the percent of the parent compound remaining after each time point. Plots of time (x-axis) vs. the natural logarithm of percent parent remaining (y-axis) were subsequently constructed to determine the slope. Finally, the aqueous stability was evaluated using the following equation:
The HPLC conditions were as follows: injection volume, 1 μL; column temperature: 40° C.; detector: 254 nm; stationary phase: Zorbax Eclipse XDB-C18 (4.6×150 mm, 5 μm); flow rate: 1 mL/min; mobile phase: 80-95% acetonitrile in H2O (0.1% formic acid).

Data set [2] is described as follows: Plasma stability assay (LC-MS/MS). As to conditions: human plasma, 37° C., 3 μM; for half-life at 3 µM: read-out: Plasma t1/2 (converted). Type of data set: in vitro ADME. As for the experimental part:
Procaine and procainamide were purchased from Sigma Aldrich. HPLC-grade acetonitrile, water, methanol, and formic acid were purchased from Fisher Scientific. Human plasma (Cat. No. […]2N) was obtained from BIOIVT, and PBS (1×Dulbecco's, pH 7.4) from Thermo Fisher Scientific.
Test compounds were dissolved in DMSO to make a stock solution of 10 mM and then diluted to 500 μM in buffer or 70% methanol. Human plasma was thawed at ambient temperature and aliquoted (994.0 μL) to a 1.5 mL Eppendorf tube in duplicates (vials A and B) for each compound. The plasma was incubated at 37° C. for 10 min in an incubator shaker at 150 RPM; the reaction was initiated by addition of the test compound (6.0 μL), followed by vortex mixing. The total reaction volume was 1000 μL, the final organic solvent concentrations were […] (when 70% methanol was used for dilution) and 0.03% DMSO, and the final concentration of the test compound was 3 μM. The spiked plasma samples were incubated at 37° C. for 4 h. The reactions were terminated at time point 0, 15, 30, 60, 120, 180, and 240 min by taking a 100 μL aliquot from the test incubation mixture and immediately quenching it by adding it into ice-cold acetonitrile or methanol (150 μL) containing 2 μM internal standard (ISTD), followed by vortex mixing. The ISTD was d5-7-ethoxy coumarin. The samples were then centrifuged at 15000 RPM for 25 min at 4° C., and the supernatant was transferred to an LC-MS vial for analysis by LC-MS/MS. Each time point was tested in duplicates followed by in-between blank washes to avoid carryover and to equilibrate the column.
Procaine (poor plasma stability) and procainamide (good plasma stability) were used as controls at the same concentration as that of the test compound. These controls were run in parallel to test the assay's competency. Matrix blank was prepared by adding acetonitrile or methanol containing ISTD to plasma samples without any of the test or control compounds. Also, an additional control sample was made to simply monitor compound degradation in PBS buffer.
Below is a summary of samples prepared for a given test compound in a typical plasma stability assay: • Test compound (TC): 994 μL human plasma+6.0 μL TC (Vial A) 994 μL human plasma+6.0 μL TC (Vial B) • Control: 596 μL human plasma+3.6 μL (procaine+procainamide) • Blank matrix: 500 μL PBS buffer+100 μL human plasma • Additional control: 142 μL PBS buffer+0.9 μL TC • Quenching mixture: 150 μL acetonitrile or methanol with ISTD (2 μM) • Final volume: 250 μL (100 μL from the incubation mixture+150 μL quenching mixture; final ISTD conc.: 1.2 μM)
LC-MS/MS analysis was performed using Agilent 1260 Infinity II HPLC, coupled with an Agilent G6460 triple quadrupole mass spectrometer (Agilent Technologies, USA). The data were acquired and processed using the Agilent 6460 Quantitative Analysis data processing software.
Reverse-phase HPLC separation for each compound was achieved on an Agilent InfinityLab Poroshell 120 C18 column (2.1×50 mm, 2.7 μm) with a mobile phase composed of methanol/water with 0.1% formic acid or acetonitrile/water with 0.1% formic acid at a flow rate of 0.5 mL/min. Each method was developed in the presence of the ISTD. The column temperature was maintained at 40° C. The detection was operated using the Agilent Jet-Stream electrospray positive ionization under the multiple reaction monitoring mode. The mass spec conditions were as follows: dwell time 100 ms; gas flow 10 L/min; nebulizer pressure 45 psi; delta EMV 200 V.
Plots of time (x-axis) vs. the natural logarithm of percent parent remaining (y-axis) were subsequently constructed to determine the slope. Finally, the plasma stability was evaluated using the following equation: […]

Data set [3] in a line: Nephelometry (aqueous solubility). As to conditions: DPBS with 1% DMSO, aqueous buffer, kinetic from dmso stock, DPBS pH 7.0-7.3, 1% DMSO, 25° C. Type of data set: physicochemical. An excerpt:
Well A1 of the plate contained 100% DMSO.

Where a name gives a salt, the structure may show the parent alone. Read-outs that look alike come from different tables or passages of the source.

On to `CNCCN(CCO)C(=O)O/N=C(\C)[C@H]1CC[C@H]2[C@@H]3CCC4=CC(=O)CC[C@]4(C)[C@H]3CC[C@]12C` [32c, 2-((((((E)-1-((8S,9S,10R,13S,14S,17S)-10,13-dimethyl-3-oxo-2,3,6,7,8,9,10,11,12,13,14,15,16,17-tetradecahydro-1H-cyclopenta[a]phenanthren-17-yl)ethylidene)amino)oxy)carbonyl)(2-hydroxyethyl)amino)-N-methylethan-1-aminium chloride], for which, in data set [1], the half-life at 1 mg/mL was 24.8 ± 1.1 h. Also, the half-life at 3 µM in data set [2] is 1.7 h. Besides, the solubility at 90 min in data set [3] is greater than 500 µM.

Take `C/C(=N\OC(=O)N(C)CCNCCO)[C@H]1CC[C@H]2[C@@H]3CCC4=CC(=O)CC[C@]4(C)[C@H]3CC[C@]12C` [32d, 2-((((((E)-1-((8S,9S,10R,13S,14S,17S)-10,13-dimethyl-3-oxo-2,3,6,7,8,9,10,11,12,13,14,15,16,17-tetradecahydro-1H-cyclopenta[a]phenanthren-17-yl)ethylidene)amino)oxy)carbonyl)(methyl)amino)-N-(2-hydroxyethyl)ethan-1-aminium chloride]: the half-life in data set [1] was 30.4 ± 5 h. The “Plasma t1/2” value in data set [2] stood at 2.8 h. For the same compound, the solubility at 90 min in data set [3] is greater than 500 µM.

With `C/C(=N\OC(=O)NC[C@@H]1CCCN1)[C@H]1CCC2[C@@H]3CCC4=CC(=O)CC[C@]4(C)[C@H]3CC[C@@]21C` (stereo partly drawn) [32g, (8S,9S,10R,13S,17S)-10,13-dimethyl-17-((E)-1-((((((S)-pyrrolidin-2-yl)methyl)carbamoyl)oxy)imino)ethyl)-1,2,6,7,8,9,10,11,12,13,14,15,16,17-tetradecahydro-3H-cyclopenta[a]phenanthren-3-one hydrochloride], in data set [1] (d (days)), the half-life at 1 mg/mL is 396 h. Also, in data set [2], the half-life at 3 µM is 9.6 h. Moreover, the solubility at 90 min in data set [3] was greater than 750 µM.

Regarding `CNCCN(C(=O)O/N=C(\C)[C@H]1CC[C@H]2[C@@H]3CCC4=CC(=O)CC[C@]4(C)[C@H]3CC[C@]12C)C(C)C.O=C(O)C(F)(F)F` [53a, (E)-9-((8S,9S,10R,13S,14S,17S)-10,13-dimethyl-3-oxo-2,3,6,7,8,9,10,11,12,13,14,15,16,17-tetradecahydro-1H-cyclopenta[a]phenanthren-17-yl)-5-isopropyl-7-oxa-2,5,8-triazadec-8-en-6-one 2,2,2-trifluoroacetate], the “PBS t1/2” value in data set [1] was 19.72 ± 0.38 h. Also, the “Plasma % rmn at 2 h” value in data set [2] is 41%. The solubility at 90 min in data set [3] is greater than 750 µM.

`CNCCN(C(=O)O/N=C(\C)[C@H]1CC[C@H]2[C@@H]3CCC4=CC(=O)CC[C@]4(C)[C@H]3CC[C@]12C)C1CC1.O=C(O)C(F)(F)F` [53b, (E)-5-cyclopropyl-9-((8S,9S,10R,13S,14S,17S)-10,13-dimethyl-3-oxo-2,3,6,7,8,9,10,11,12,13,14,15,16,17-tetradecahydro-1H-cyclopenta[a]phenanthren-17-yl)-7-oxa-2,5,8-triazadec-8-en-6-one 2,2,2-trifluoroacetate]: in data set [1], the “PBS t1/2” value was determined as 28.16 ± 0.04 h. Moreover, in data set [2], the “Plasma % rmn at 2 h” value is 45%. This compound also came in with a solubility at 90 min in data set [3] greater than 750 µM.

For the compound `CNCCN(C(=O)O/N=C(\C)[C@H]1CC[C@H]2[C@@H]3CCC4=CC(=O)CC[C@]4(C)[C@H]3CC[C@]12C)C1CCCC1.O=C(O)C(F)(F)F` [53d, (E)-5-cyclopentyl-9-((8S,9S,10R,13S,14S,17S)-10,13-dimethyl-3-oxo-2,3,6,7,8,9,10,11,12,13,14,15,16,17-tetradecahydro-1H-cyclopenta[a]phenanthren-17-yl)-7-oxa-2,5,8-triazadec-8-en-6-one 2,2,2-trifluoroacetate], the “PBS t1/2” value in data set [1] is 10.70 ± 0.15 h. The “Plasma % rmn at 2 h” value in data set [2] was found to be 65%. For the same compound, the solubility at 90 min in data set [3] was greater than 750 µM.

As to `CNCCN(CC(C)C)C(=O)O/N=C(\C)[C@H]1CC[C@H]2[C@@H]3CCC4=CC(=O)CC[C@]4(C)[C@H]3CC[C@]12C.O=C(O)C(F)(F)F` [53e, (E)-9-((8S,9S,10R,13S,14S,17S)-10,13-dimethyl-3-oxo-2,3,6,7,8,9,10,11,12,13,14,15,16,17-tetradecahydro-1H-cyclopenta[a]phenanthren-17-yl)-5-isobutyl-7-oxa-2,5,8-triazadec-8-en-6-one 2,2,2-trifluoroacetate], in data set [1], the half-life was greater than 24 h. Moreover, the “Plasma % rmn at 2 h” value in data set [2] was 83%. The solubility at 90 min in data set [3] is greater than 750 µM.

For the compound `CCNCCN(CC)C(=O)O/N=C(\C)[C@H]1CC[C@H]2[C@@H]3CCC4=CC(=O)CC[C@]4(C)[C@H]3CC[C@]12C.Cl` [54a, (E)-2-((8S,9S,10R,13S,14S,17S)-10,13-dimethyl-3-oxo-2,3,6,7,8,9,10,11,12,13,14,15,16,17-tetradecahydro-1H-cyclopenta[a]phenanthren-17-yl)-6-ethyl-4-oxa-3,6,9-triazaundec-2-en-5-one hydrochloride], in data set [1], the half-life is greater than 24 h. Also, in data set [2], the “Plasma % rmn at 2 h” value was found to be 71%. For the same compound, the solubility at 90 min in data set [3] is greater than 750 µM.

`C/C(=N\OC(=O)N(CCNC(C)C)C(C)C)[C@H]1CC[C@H]2[C@@H]3CCC4=CC(=O)CC[C@]4(C)[C@H]3CC[C@]12C.Cl` [54b, (E)-2-((8S,9S,10R,13S,14S,17S)-10,13-dimethyl-3-oxo-2,3,6,7,8,9,10,11,12,13,14,15,16,17-tetradecahydro-1H-cyclopenta[a]phenanthren-17-yl)-6-isopropyl-10-methyl-4-oxa-3,6,9-triazaundec-2-en-5-one hydrochloride]: the half-life in data set [1] is greater than 24 h. For the same compound, the “Plasma % rmn at 2 h” value in data set [2] came to 84%. The solubility at 90 min in data set [3] is greater than 500 µM.

Regarding `C/C(=N\OC(=O)N(CCO)CCNCCO)[C@H]1CC[C@H]2[C@@H]3CCC4=CC(=O)CC[C@]4(C)[C@H]3CC[C@]12C.Cl` [54d, (E)-2-((8S,9S,10R,13S,14S,17S)-10,13-dimethyl-3-oxo-2,3,6,7,8,9,10,11,12,13,14,15,16,17-tetradecahydro-1H-cyclopenta[a]phenanthren-17-yl)-11-hydroxy-6-(2-hydroxyethyl)-4-oxa-3,6,9-triazaundec-2-en-5-one hydrochloride], the “PBS t1/2” value in data set [1] is recorded as 28.79 ± 3.16 h. For the same compound, the “Plasma % rmn at 2 h” value in data set [2] stood at 32%. Moreover, the solubility at 90 min in data set [3] is greater than 750 µM.
